Reference: US20090317741A1, “COMPOUND, ACID GENERATOR, RESIST COMPOSITION AND METHOD OF FORMING RESIST PATTERN” (Tokyo Ohka Kogyo Co., Ltd., priority 2006, published 2009)

Experimental: The solution of propylene glycol monomethyl ether acetate (PGMEA), propylene glycol monomethyl ether (PGME), or ethyl lactate (EL) with each compound described above was prepared, while changing the concentration. After the preparation, each solution was stirred, and then the concentration in which each acid generator was completely dissolved was measured.

CC(C)(C)c1ccc(-[s+]2c3ccccc3c3ccccc32)cc1 [Compound (b1-21)]
Solubility in EL: 7 % by weight
Solubility in PGME: >20 % by weight
Solubility in PGMEA: 5 % by weight

CCC(C)(C)c1ccc(-[s+]2c3ccccc3c3ccccc32)cc1 [Compound (b1-24)]
Solubility in EL: >20 % by weight
Solubility in PGME: >20 % by weight
Solubility in PGMEA: 15 % by weight
